This note sets out measurements from US12465578B2, “Substituted alpha-ethyl phenylalkylamines” (Alexander Shulgin Research Institute, Inc., priority 2021, dated 2025).

SMILES strings stand for the structures.

A short description of this data set: In vitro metabolic stability: percent of compound remaining in human liver microsomes. It is filed as in vitro ADME. Conditions: for Percent of Compound Remaining Over Time / Dunnett's Multiple Comparison Test Mean Diff. (percent remaining, 2C-B minus compound): human liver microsomes; for rate of metabolism compared with 2C-B: human liver microsomes, 15, 30, 45 and 60 minutes of incubation; for rate of metabolism compared with 2C-B / Dunnett's Multiple Comparison Test Mean Diff. (percent remaining, 2C-B minus compound): 2C-B as control drug; for Dunnett's Multiple Comparison Test Mean Diff. (percent remaining, 2C-B minus compound): one-way ANOVA with Dunnett's post-test. The method, then:
A high-throughput assay is used to determine metabolic stability of disclosed compounds and undeuterated analogs thereof in various matrices, including human liver microsomes, using LCMS analysis to quantify the percent compound remaining after incubation. Briefly, the disclosed compound is mixed with liver microsomes and activated. Following this incubation, acetonitrile is added to terminate the reaction. Then, the samples are centrifuged and the supernatant is dried. The residue is reconstituted and analyzed using liquid chromatography-mass spectrometry. Pharmacokinetic parameters are calculated using a noncompartmental model. The half-life (t1/2) is estimated from the slope of the initial linear range of the logarithmic curve of compound remaining (%) versus time, assuming first order kinetics.
In one such assay of metabolic stability, percent of compound remaining was determined in human liver microsomes after 15, 30, 45, and 60 minutes of incubation, for 2C-B, 2C-B-2-OCD3 (compound I-B-31), and 2C-B-5-OCD3 (compound I-A-31).
(In general: Microsomes from liver hold many membrane-bound enzymes, among them those of drug oxidation.)

Consider `COc1cc(CCN)c(OC)cc1Br` [Compound 2C-B, 2-(4-bromo-2,5-dimethoxyphenyl)ethanamine, reference compound], for which the “Percent of Compound Remaining Over Time” value (0 minutes of incubation) was 100.0000%; the “Percent of Compound Remaining Over Time” value (15 minutes of incubation) was found to be 104.3970%; the “Percent of Compound Remaining Over Time” value (30 minutes of incubation) came out at 109.8740%; the “Percent of Compound Remaining Over Time” value (45 minutes of incubation) was determined as 105.1500%; the “Percent of Compound Remaining Over Time” value (60 minutes of incubation) turned out to be 116.6050%.
As to `Cl.[2H]C([2H])([2H])Oc1cc(Br)c(OC)cc1CCN` [Compound 2C-B-2-OCD3, 2-(4-bromo-5-methoxy-2-(methoxy-d3)phenyl)ethan-1-amine hydrochloride], the “rate of metabolism compared with 2C-B” value is on record as “metabolized more quickly than 2C-B” and the “Dunnett's Multiple Comparison Test Mean Diff. (percent remaining, 2C-B minus compound)” value is given as 11.57. The “Percent of Compound Remaining Over Time” value (0 minutes of incubation) came out at 100.0000%. The “Percent of Compound Remaining Over Time” value (15 minutes of incubation) is reported as 95.8357%. Further, the “Percent of Compound Remaining Over Time” value (30 minutes of incubation) was found to be 91.9169%. Further, the “Percent of Compound Remaining Over Time” value (45 minutes of incubation) amounted to 98.7307%. Also, where the note is “60 minutes of incubation”, the “Percent of Compound Remaining Over Time” value is recorded as 91.6972%.
As to `Cl.[2H]C([2H])([2H])Oc1cc(CCN)c(OC)cc1Br` [Compound 2C-B-5-OCD3, 2-(4-bromo-2-methoxy-5-(methoxy-d3)phenyl)ethan-1-amine hydrochloride], the “rate of metabolism compared with 2C-B” value is “metabolized more quickly than 2C-B” and the “Dunnett's Multiple Comparison Test Mean Diff. (percent remaining, 2C-B minus compound)” value came out at 14.31. Further, the “Percent of Compound Remaining Over Time” value (0 minutes of incubation) is listed as 100.0000%. Further, under “15 minutes of incubation”, the “Percent of Compound Remaining Over Time” value is given as 96.2535%. For the same molecule, the “Percent of Compound Remaining Over Time” value (30 minutes of incubation) is recorded as 90.6402%. Further, the “Percent of Compound Remaining Over Time” value (45 minutes of incubation) worked out at 90.7021%. Under “60 minutes of incubation”, the “Percent of Compound Remaining Over Time” value is 86.9011%.
